According to the Kinase Knowledgebase extract (Sharma et al. 2016):
pIC50: −log10 of the molar value.

Target: PIK3CG (human) (UniProt P48736)
Test: Inhibition of PIK3CG Kinase Activity

Chain of PIK3CG (human) (P48736 whole entry, looked up): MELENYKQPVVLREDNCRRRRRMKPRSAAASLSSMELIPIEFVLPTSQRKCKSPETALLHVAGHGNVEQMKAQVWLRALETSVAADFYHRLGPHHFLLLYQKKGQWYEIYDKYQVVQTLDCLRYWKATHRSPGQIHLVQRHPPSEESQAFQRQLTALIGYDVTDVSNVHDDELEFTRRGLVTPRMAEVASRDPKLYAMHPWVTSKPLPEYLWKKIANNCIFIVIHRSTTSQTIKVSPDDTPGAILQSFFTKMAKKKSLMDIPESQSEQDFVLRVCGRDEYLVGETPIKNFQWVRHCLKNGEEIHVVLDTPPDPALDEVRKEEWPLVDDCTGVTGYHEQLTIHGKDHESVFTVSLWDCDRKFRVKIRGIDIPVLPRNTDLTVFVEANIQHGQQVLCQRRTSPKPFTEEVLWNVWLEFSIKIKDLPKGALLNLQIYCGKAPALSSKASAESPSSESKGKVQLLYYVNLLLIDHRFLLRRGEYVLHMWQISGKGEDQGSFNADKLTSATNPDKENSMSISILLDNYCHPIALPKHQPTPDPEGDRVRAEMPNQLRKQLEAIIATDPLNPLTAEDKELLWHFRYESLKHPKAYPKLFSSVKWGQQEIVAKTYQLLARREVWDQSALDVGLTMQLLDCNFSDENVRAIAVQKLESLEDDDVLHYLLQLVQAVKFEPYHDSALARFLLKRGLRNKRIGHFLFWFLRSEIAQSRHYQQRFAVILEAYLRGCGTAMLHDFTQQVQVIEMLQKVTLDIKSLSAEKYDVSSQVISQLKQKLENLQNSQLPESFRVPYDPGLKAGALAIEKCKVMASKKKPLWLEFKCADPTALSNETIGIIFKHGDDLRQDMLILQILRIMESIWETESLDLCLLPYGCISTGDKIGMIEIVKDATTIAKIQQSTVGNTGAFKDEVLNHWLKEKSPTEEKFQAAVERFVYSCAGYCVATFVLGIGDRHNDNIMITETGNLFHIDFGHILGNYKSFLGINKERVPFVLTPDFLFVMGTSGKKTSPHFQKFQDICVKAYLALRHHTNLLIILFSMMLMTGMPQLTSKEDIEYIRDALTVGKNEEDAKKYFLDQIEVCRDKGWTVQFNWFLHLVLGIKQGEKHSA

Compound | pIC50
Cn1nc(-c2ccc(O)cc2)c2cnc(N)nc21 | > 5.70
CC(=O)c1cccc(-c2nn(C)c3nc(N)ncc23)c1 | > 5.70
COc1ccc(C(=O)NC(C)C)cc1-c1nn(C)c2nc(N)ncc12 | > 5.70
Cn1nc(-c2cc(F)c(O)c(Br)c2)c2cnc(N)nc21 | > 5.70
Cn1nc(-c2cc(F)c(OCCN3CCCC3)c(Br)c2)c2cnc(N)nc21 | > 5.70
Cn1nc(-c2cc(Cl)cc(Br)c2O)c2cnc(N)nc21 | > 5.70
Cn1nc(-c2ccc(OCCN3CCOCC3)c(F)c2)c2cnc(N)nc21 | > 5.70
Cn1nc(-c2ccc(OCC#N)c(F)c2)c2cnc(N)nc21 | > 5.70
COc1cc(-c2nn(C)c3nc(N)ncc23)cc(Cl)c1O | > 5.70
COCCOc1c(F)cc(-c2nn(C)c3nc(N)ncc23)cc1Br | > 5.70
Cn1nc(-c2cccc(O)c2)c2cnc(N)nc21 | > 5.70
Cn1nc(-c2cc(C(F)(F)F)cc(Cl)c2O)c2cnc(N)nc21 | > 5.70
COCCOc1ccc(-c2nn(C)c3nc(N)ncc23)cc1F | > 5.70
COc1ccc(C(F)(F)F)cc1-c1nn(C)c2nc(N)ncc12 | > 5.70
Cn1nc(-c2ccc(C#N)cc2)c2cnc(N)nc21 | > 5.70
Cn1nc(-c2ccc(OCCCO)c(F)c2)c2cnc(N)nc21 | > 5.70
Cn1nc(-c2ccc(O)cc2O)c2cnc(N)nc21 | > 5.70
Cn1nc(-c2cccc(C=O)c2)c2cnc(N)nc21 | > 5.70
Cn1nc(-c2cc(F)c3[nH]ccc3c2)c2cnc(N)nc21 | > 5.70
Cn1nc(-c2cc(C(F)(F)F)ccc2O)c2cnc(N)nc21 | > 5.70
CN1CCN(CCCOc2ccc(-c3nn(C)c4nc(N)ncc34)cc2F)CC1 | > 5.70
COc1c(F)cc(F)cc1-c1nn(C)c2nc(N)ncc12 | > 5.70

Compound | pIC50
COc1ccc(-c2nn(C)c3nc(N)nc(NCc4ccccc4)c23)cc1F | > 5.70
COc1ccc(-c2nn(C)c3nc(N)ncc23)cc1F | > 5.70
CC(=O)c1ccc(-c2nn(C)c3nc(N)ncc23)cc1 | > 5.70
Cn1nc(-c2cc(F)cc(Br)c2)c2cnc(N)nc21 | > 5.70
Cn1nc(-c2cc(F)c(C=O)c(F)c2)c2cnc(N)nc21 | > 5.70
COc1cc(OC(F)(F)F)ccc1-c1nn(C)c2nc(N)ncc12 | > 5.70
Cn1nc(-c2cccc(C#N)c2)c2cnc(N)nc21 | > 5.70
Cn1nc(-c2ccc(O)c(F)c2)c2cnc(N)nc21 | > 5.70
Cn1nc(-c2ccc(OCCn3ccnc3)c(F)c2)c2cnc(N)nc21 | > 5.70
Cn1nc(-c2cccc(Br)c2OCc2ccccc2F)c2cnc(N)nc21 | > 5.70
Cn1nc(-c2cc(F)c(C#N)c(F)c2)c2cnc(N)nc21 | > 5.70
Cn1nc(-c2ccc(OC(F)(F)F)cc2O)c2cnc(N)nc21 | > 5.70
Cn1nc(-c2cc(F)c(O)c(C#N)c2)c2cnc(N)nc21 | > 5.70
Cn1nc(-c2cc(Cl)c(O)c(Br)c2O)c2cnc(N)nc21 | > 5.70
CNc1ncc2c(-c3ccc(OC)c(F)c3)nn(C)c2n1 | > 5.70
COc1ncc(-c2nn(C)c3nc(N)ncc23)cc1F | > 5.70
COc1ccc(Cl)cc1-c1nn(C)c2nc(N)ncc12 | > 5.70
Cn1nc(-c2cc(F)c(O)c(C=O)c2)c2cnc(N)nc21 | > 5.70
Cn1nc(-c2cc(Cl)c(OC(F)(F)F)c(Br)c2O)c2cnc(N)nc21 | > 5.70
Cn1nc(-c2cnc(N3CCNCC3)nc2)c2cnc(N)nc21 | > 5.70
COc1ccc(-c2nn(C)c3nc(N)ncc23)c(OC)c1 | > 5.70
COc1ccc(-c2nn(C)c3nc(N)ncc23)cc1Br | > 5.70

Compound | pIC50
Cn1nc(-c2ccc(F)c(F)c2)c2cnc(N)nc21 | > 5.70
Cc1[nH]c2ccc(-c3nn(C)c4nc(N)ncc34)cc2c1C | > 5.70
CC(=O)c1cccc(-c2nn(C)c3nc(N)ncc23)c1F | > 5.70
Cn1nc(-c2cc(F)c(OCCO)c(Br)c2)c2cnc(N)nc21 | > 5.70
Cc1ccc(-c2nn(C)c3nc(N)ncc23)cc1[N+](=O)[O-] | > 5.70
Cn1nc(-c2ccc(O)c(C(F)(F)F)c2)c2cnc(N)nc21 | > 5.70
COc1cccc(OC)c1-c1nn(C)c2nc(N)ncc12 | > 5.70
Cn1nc(-c2cncc(S(C)(=O)=O)c2)c2cnc(N)nc21 | > 5.70
Cn1nc(-c2cnc(N)c(C(F)(F)F)c2)c2cnc(N)nc21 | > 5.70
Cn1nc(-c2ccc(NS(C)(=O)=O)c(F)c2)c2cnc(N)nc21 | > 5.70
Cn1nc(-c2ccc(F)c(F)c2F)c2cnc(N)nc21 | > 5.70
Cn1nc(-c2cccc(F)c2)c2cnc(N)nc21 | > 5.70
COc1ccc(NCCCN(C)C)cc1-c1nn(C)c2nc(N)ncc12 | > 5.70
Cn1nc(-c2ccc(N)c(F)c2)c2cnc(N)nc21 | > 5.70
CCN(CC)S(=O)(=O)c1cc(-c2nn(C)c3nc(N)ncc23)ccc1O | > 5.70
Cn1nc(-c2cccc(C(F)(F)F)c2)c2cnc(N)nc21 | > 5.70
Cn1nc(-c2ccc(OCCCN3CCOCC3)c(F)c2)c2cnc(N)nc21 | > 5.70
COc1c(F)cc(-c2nn(C)c3nc(N)ncc23)cc1F | > 5.70
Cn1nc(-c2cncc(C(F)(F)F)c2)c2cnc(N)nc21 | > 5.70
CC(C)Oc1ccc(-c2nn(C)c3nc(N)ncc23)cc1Cl | > 5.70
Cn1nc(-c2cccc(NS(C)(=O)=O)c2)c2cnc(N)nc21 | > 5.70
Cn1nc(-c2cccc(F)c2O)c2cnc(N)nc21 | > 5.70

Compound | pIC50
COc1cc(F)ccc1-c1nn(C)c2nc(N)ncc12 | > 5.70
Cn1nc(-c2cc(O)cc(F)c2)c2cnc(N)nc21 | > 5.70
Cn1nc(-c2cc(F)ccc2O)c2cnc(N)nc21 | > 5.70
COc1ncc(-c2nn(C)c3nc(N)ncc23)c(OC)n1 | > 5.70
COc1ccc(CO)cc1-c1nn(C)c2nc(N)ncc12 | > 5.70
Cc1noc(C)c1-c1nn(C)c2nc(N)ncc12 | > 5.70
CC(C)CNC(=O)c1cccc(-c2nn(C)c3nc(N)ncc23)c1 | > 5.70
CNS(=O)(=O)c1cccc(-c2nn(C)c3nc(N)ncc23)c1 | > 5.70
COc1ccc(-c2nn(C)c3nc(N)ncc23)cc1Cl | > 5.70
Cn1nc(-c2cc(F)c(C(=O)O)c(F)c2)c2cnc(N)nc21 | > 5.70
Cn1nc(-c2ccc(F)c(Cl)c2)c2cnc(N)nc21 | > 5.70
COc1c(F)cc(-c2nn(C)c3nc(N)ncc23)cc1NC(C)=O | > 5.70
COc1ccc(OC)c(-c2nn(C)c3nc(N)ncc23)c1 | > 5.70
Cn1nc(-c2cc(Cl)c(O)c(Cl)c2)c2c(NCCN3CCOCC3)nc(N)nc21 | > 5.70
COc1cc(-c2nn(C)c3nc(N)ncc23)ccn1 | > 5.70
Cn1nc(-c2cc(Cl)c(O)cc2O)c2cnc(N)nc21 | > 5.70
COc1c(Cl)cc(C(F)(F)F)cc1-c1nn(C)c2nc(N)ncc12 | > 5.70
CC(C)Cc1ccc(-c2nn(C)c3nc(N)ncc23)cc1 | > 5.70
Cc1cccc(-c2nn(C)c3nc(N)ncc23)c1 | > 5.70
Cn1nc(-c2ccco2)c2cnc(N)nc21 | > 5.70
Cn1nc(-c2cc(F)c(O)c(F)c2)c2cnc(N)nc21 | > 5.70

Results, then the molecule that gave them:

pIC50 | Compound
> 5.70 | Cn1nc(-c2ccc(OCCN3CCCC3)c(F)c2)c2cnc(N)nc21
> 5.70 | CC(C)Oc1ccc(-c2nn(C)c3nc(N)ncc23)cc1F
> 5.70 | COc1ccc(Br)cc1-c1nn(C)c2nc(N)ncc12
> 5.70 | Cn1nc(-c2ccc3ccoc3c2)c2cnc(N)nc21
> 5.70 | Cn1nc(-c2ccc3cc[nH]c3c2)c2cnc(N)nc21
> 5.70 | COc1cc(OC)c(S(=O)(=O)O)cc1-c1nn(C)c2nc(N)ncc12
> 5.70 | Cn1nc(-c2cc(C=O)ccc2O)c2cnc(N)nc21
> 5.70 | Cn1nc(-c2cccnc2)c2cnc(N)nc21
> 5.70 | CCOc1ccc2ccccc2c1-c1nn(C)c2nc(N)ncc12
> 5.70 | Cn1nc(-c2ccc3c(c2)OCCO3)c2cnc(N)nc21
> 5.70 | Cn1nc(-c2ccc3c(c2)OCO3)c2cnc(N)nc21
> 5.70 | COc1cc(OC)c(S(=O)(=O)NC(C)C)cc1-c1nn(C)c2nc(N)ncc12
> 5.70 | COc1ccc(C(=O)O)cc1-c1nn(C)c2nc(N)ncc12
> 5.70 | CNS(=O)(=O)c1cc(-c2nn(C)c3nc(N)ncc23)ccc1Cl
> 5.70 | COc1ncc(-c2nn(C)c3nc(N)ncc23)cn1
> 5.70 | COc1ccc(-c2nn(C)c3nc(N)ncc23)cc1
> 5.70 | CCOc1ccc(-c2nn(C)c3nc(N)ncc23)cc1F
> 5.70 | Cn1nc(-c2cc(F)c(O)c(Cl)c2)c2cnc(N)nc21
> 5.70 | COc1ccc(-c2nn(C)c3nc(N)ncc23)cn1
> 5.70 | Cn1nc(-c2ccncc2)c2cnc(N)nc21

pIC50 | Compound
> 5.70 | Cn1nc(-c2cc(Cl)c(O)c(Cl)c2)c2cnc(N)nc21
> 5.70 | COc1ccc(F)cc1-c1nn(C)c2nc(N)ncc12
> 5.70 | Cn1nc(-c2cc(Cl)c(O)c(C(F)(F)F)c2)c2cnc(N)nc21
> 5.70 | Cn1nc(-c2ccc(Cl)s2)c2cnc(N)nc21
> 5.70 | COc1cc(OC)c(-c2nn(C)c3nc(N)ncc23)cc1Cl
> 5.70 | Cn1nc(-c2cc(F)cc(F)c2)c2cnc(N)nc21
> 5.70 | Cn1nc(-c2cccc3cccnc23)c2cnc(N)nc21
> 5.70 | Cn1nc(-c2cc(F)ccc2OCCO)c2cnc(N)nc21
> 5.70 | Cn1nc(-c2cccc(S(C)(=O)=O)c2)c2cnc(N)nc21
> 5.70 | CNC(=O)c1cccc(-c2nn(C)c3nc(N)ncc23)c1
> 5.70 | Cn1nc(-c2ccc(OCCO)c(F)c2)c2cnc(N)nc21
> 5.70 | Cn1nc(-c2cc(F)c(F)c(F)c2)c2cnc(N)nc21
> 5.70 | Cn1nc(-c2cc(F)cc(OCC(=O)O)c2)c2cnc(N)nc21
> 5.70 | Cn1nc(-c2ccc(Cl)c(Cl)c2)c2cnc(N)nc21
> 5.70 | COc1ccc(C=O)cc1-c1nn(C)c2nc(N)ncc12
> 5.70 | Cn1nc(-c2ccc(OCc3ccccc3)c(F)c2)c2cnc(N)nc21
> 5.70 | CNS(=O)(=O)c1cc(-c2nn(C)c3nc(N)ncc23)c(OC)cc1OC
> 5.70 | CN(C)C(=O)c1cc(-c2nn(C)c3nc(N)ncc23)cc(F)c1OCc1ccccc1
> 5.70 | Cn1nc(-c2ccnc(Cl)c2)c2cnc(N)nc21
> 5.70 | COc1cc(-c2nn(C)c3nc(N)ncc23)cc(OC)c1OC
